# “And” between values parts separate entries of the source, which are not always exact repeats. Equal entries are not always repeated. “Also recorded” adds a separate entry of the source.
# Assays:
# [1] = test system: HIV-1 RT mutant resistance test vector M41L-A62V-T69SSA-T215Y-L210W-RTV; experiment: Phenotypic susceptibility assay, site directed RTV M41L+A62V+T69SSA+L210W+T215Y; format: cell-based; conditions: RTV with 41 + 62 + 69 + 210 + 215; 3 replicates
# Protocol: (§1) Resistance tests were carried out with resistance test vectors using two host cell types. Resistance test vector viral particles were produced by a first host cell (the resistance test vector host cell) that was prepared by transfecting a packaging host cell with the resistance test vector and the packaging expression vector. The resistance test vector viral particles were then used to infect a second host cell (the target host cell) in which the expression of the indicator gene is measured.
# The resistance test vectors containing a functional luciferase gene cassette were constructed and host cells were transfected with the resistance test vector DNA. The resistant test vectors contained patient-derived reverse transcriptase and protease sequences that were either susceptible or resistant to the antiretroviral agents, such as nucleoside reverse transcriptase inhibitors, non-nucleoside reverse transcriptase inhibitors and protease inhibitors. The resistance test vector viral particles produced by transfecting the resistance test vector DNA into host cells, either in the presence or absence of protease inhibitors, were used to infect target host cells grown either in the absence of NRTI or NNRTI or In the presence of increasing concentrations of the drug. The amount of luciferase activIty produced in infected target host cells in the presence of drug was compared to the amount of luciferase produced in infected target host cells in the absence of drug. […] The IC50 values were determined by plotting percent drug inhibition vs. log 10 drug concentration.
# (§2) Host cells were seeded in 10-cm-diameter dishes and were transfected several days after plating with resistance test vector plasmid DNA and the envelope expression vector. […] HIV capsid protein (p24) levels in the harvested cell culture media were determined by an EIA method as described by the manufacturer (SIAC; Frederick, Md.). […] The inhibitory effect of the drug was determined using the following equation: […]
# [2] = test system: HIV-1 RT mutant resistance test vector V75I+Q151M; experiment: Phenotypic susceptibility assay, site directed RTV V75I+Q151M; format: cell-based; conditions: RTV with V75I+Q151M
# Protocol: as §1
# The resistance test vectors containing a functional luciferase gene cassette were constructed and host cells were transfected with the resistance test vector DNA. […] The IC50 values were determined by plotting percent drug inhibition vs. log 10 drug concentration.
# as §2
# [3] = test system: RTV clone 285-1 (T69SSA) versus revertant 285-1 (SSA69T); experiment: Phenotypic susceptibility assay, patient 285 clone and T69SSA revertant; format: cell-based, HIV-1; conditions: T69SSA→SSA69T in a clone of a patient's virus
Compound,Average fold reduction in susceptibility [1],effect on susceptibility (words) [2],effect of reversion of the T69SSA mutation [3]
"Nc1ccn([C@H]2CC[C@@H](CO)O2)c(=O)n1 [ddC, zalcitabine]",2.1 fold and 2.10 fold,–,–
"Cc1cn([C@H]2C=C[C@@H](CO)O2)c(=O)[nH]c1=O [d4T, stavudine]",–,decreased susceptibility to d4T; also recorded: reduced d4T and AZT susceptibility,reduced d4T resistance
